These results are taken from patent US7838122B2, “Hydrazide compounds with angiogenic activity” (Rutgers, the State University of New Jersey, priority 2003, dated 2010).

Data set [1] can be described thus: Scaffold degradation study in SBF at 37° C. (HPLC, TGA, gravimetry).
Protocol: To determine degradation products of porous scaffolds (compositions used: 100/80, 50/40 and 25/20), hydrogel disks of various compositions samples were incubated at 37° C. in SBF at a constant weight to volume ratio of 5 mg/mL, maintaining a constant surface area to volume ratio. Over a one-week period, aliquots were removed and analyzed by HPLC. Buffer solutions were changed every two weeks to maintain sink conditions. Samples were analyzed over a 6-month period for degradation products in the buffer by HPLC, for water uptake by TGA, and mass loss by gravimetry. Aliquots of the degradation media were analyzed by HPLC. The HPLC system consisted of a reversed-phase (C18) column (Perkin-Elmer, Norwalk, Calif.), an LC pump (Model 410; Perkin-Elmer), a UV array detector at 220 nm (Model 235 Perkin-Elmer), an autoinjector (Model ISS-100; Perkin-Elmer), and a computerized data station (Turbochrom; Perking Elmer). A gradient system of water:acetonitrile was used as an eluent to capture each degradation product. Degradation was monitored using DT and DTE standards, and quantitation of degradation products was determined from the area under the signal peaks in the chromatogram after correlating to the standards. […] Mass loss was calculated as the % ratio of weight lost over initial weight. […]
For data set [2], the system named is Human aortic endothelial cells (HAEC). The data set can be described thus: In vitro endothelial cell migration assay (transwell microchemotaxis chamber). The data set is classed as cell-based. The protocol: Endothelial cells were known to respond to angiogenic factors which cause motility and mitosis, and ultimately the release of growth factors from the cells. Human aortic endothelial cells (HAEC) were cultured at passage 8 and maintained and fed with MCDB 131 media with EGM-2 (Clonetics) until the day of the experiment. Cultures were maintained at 37° C., 5% CO2 and 100% humidity. Comparisons were made of PEG-di-DT Hydrazide activity versus basic FGF-β. The PEG-di-DT hydrazide and basic FGF-β were dissolved in MCDB 131 media. Basic FGF-β was used as a positive control due to its well documented angiogenic activity and extensive testing. Dose-response curves were obtained for PEG-di-DT Hydrazide and basic FGF-β. PEG-dihydrazide, DT monomer, and PEG (Mw=2000), were prepared in MCDB 131 media according to Table 2, and were also tested. Migration assays were performed in a 24-well microchemotaxis chamber (Co-Star) containing transwells of untreated polycarbonate membranes with 8 μm pores. Both the transwells and well bottoms were coated overnight with a 10 μg/mL fibronectin solution (Calbiochem). HAE cells were harvested and resuspended at a concentration of 4.5×10^5 cells/0.1 mL in the corresponding medium. Media was also tested to determine baseline chemotaxis. The bottom wells were filled with 500 μL of test solution, and the transwells were seeded with […] and incubated for 6 hours at 37° C. The cells that migrated through the membrane were quantitated by counting the whole area of the filter using a grid and a (Olympus) microscope at 40× or 20× magnification.

For data set [3], the system named is Rat lung fibroblasts (RLF-6). The data set is described as follows: Cytotoxicity, CellTiter96 Aqueous One Solution Cell Proliferation Assay. The following applies: RFL-6 cells; serial dilutions 200 to 7.8 mg/mL in SBF; read at 490 nm.
Protocol: In vitro biocompatibility studies of PEG-di-DT hydrazide were assessed by analyzing cytotoxicity. […] The CellTiter96® Aqueous One Solution Cell Proliferation Assay (Promega, Madison, Wis.) was used to determine cytotoxicity. Plates were read on a PowerWavex absorbance plate reader, (Bio-Tek Instrumentation, Inc., Highland Park, Vt.).
Cell toxicity studies were carried out in 96-well plates made of tissue-cultured polystyrene, and ˜3×10^3 cells were seeded in each well. Serial dilutions of PEG-di-DT hydrazide were prepared in concentrations ranging from 200 mg/mL to 7.8 mg/mL using SBF as the diluent. Volume of media was kept constant to prevent nutritional advantages. Filter-sterilized dilutions (n=6) were plated in a 96 well plate and controls of media+cells+diluent (to account for affects of the diluent), and media+cells (optimal cell culture conditions) were employed. […] The plates were incubated for 2 hours and read at 490 nm on an absorbance plate reader. Data were analyzed using a two-tailed Student t-test, establishing statistical significance at p<0.05 when compared to cells grown in the cell+media+diluent control.

As to `O=C(CCc1ccc(O)cc1)N[C@@H](Cc1ccc(O)cc1)C(=O)O` [DT, desaminotyrosyl-tyrosine free carboxylic acid], in data set [1] (HPLC, 6-month study), the “presence of degradation product during degradation” value is given as “continued to remain during the course of degradation”. Further, the cell migration result in data set [2] (HAEC, 6 hours at 37° C.) is listed as “Neither PEG 2000 nor DT solutions caused cell migration to occur”.
Take `CCOC(=O)[C@H](Cc1ccc(O)cc1)NC(=O)CCc1ccc(O)cc1` [DTE, desaminotyrosyl-tyrosine ethyl ester]: in data set [1] (degradation media of hydrogels, SBF, 37° C.), the “time by which degradation product was undetectable by HPLC” value was no more than 12 weeks.
As to `CC(O)C(=O)[O-].[Na+]` (stereo not shown) [Sodium Lactate, sodium lactate], in data set [3], the “Results of the Cytotoxicity Assay” value is given as 3 mg/mL.
In the case of “FGF-β: growth factor, known angiogenic substance used as positive control”, the “dose dependence of cell migration” value in data set [2] (FIG. 7 / FIG. 8) is given as “dose dependent manner”. Moreover, the “minimum effective concentration (cell migration)” value in data set [2] (HAEC, 6 hours, FIG. 6) was 0.01 µg/mL. Also, the “cell migration response versus media alone” value in data set [2] (all concentrations tested) is “higher cell migration response than the media alone”.
